Reference: patent US10201559B2, “Compositions of selenoorganic compounds and methods of use thereof” (Alltech, Inc., priority 2014, dated 2019)

Experiments:
IMR-32 cells = assay: Quantitative analysis of mitochondrial potential in IMR-32 cells; type: cell-based, human; settings: for enhanced MT potential compared with sulfur analogs: 24 hr
Description: Similar to the above studies on AML-12 cells, the mitochondrial potential per cell in living IMR-32 cells was determined using the Bio-TeK Synergy HT Multi-Mode fluorescence microplate reader with the following modifications. To improve the attachment of IMR-32 cells to culture dishes, cell culture plates were precoated with 0.1% gelatin (Sigma, St. Louis, Mo.). 2×10^4 cells per a 96-well were seeded on gelatinized 96-well plates for the above studies. To reduce the cell dislodgment, Mitotracker orange and Hoechst 33342 fluorescent dyes (diluted in culture media) were directly added to each well after vehicle- or compound-treatments. After dye incubation, cell culture media were carefully replaced with 1× PBS for the quantitation analysis of fluorescence on the microplate reader. Eight samples per each treatment were examined for the above analysis, and the experiments were repeated at least five times. Data are presented as mean±sem of eight samples.

AML-12 cells = assay: Quantitative analysis of mitochondrial potential in AML-12 cells; type: cell-based, mouse; settings: 150 ppb (of each compound), 6 and 24 hr
Description: For AML-12 liver cells, cells were amplified in 10% FBS Dulbecco's modified Eagle's medium and Ham's F12 medium (1:1) (DMEM/F12) media supplemented with 1× Insulin/Transferin/Selenium (ITS, Sigma). Then equal number of cells (1×10^4 cells/well) were seeded on Corning 96-well clear-bottom and dark-wall cell culture plates (VWR, Radnor, Pa.), cultured in ITS-free 10% FBS DMEM/F12 media for 24 hr., and then subjected to the treatments of various compounds or combination of compounds for 6, 24, and 48 hr. Mitochondrial potential in living cells was determined by quantitative analysis of fluorescence intensities using the Mitotracker orange dye as described above. In addition, the above treated cells were also incubated with Hoechst 33342 dye (Invitrogen, Grand Island, N.Y.) to stain cell nuclei according to the Manufacturer's protocol. The fluorescent intensities of stained cell nuclei by Hoechst 33342 dye were also determined by the fluorescence microplate reader. The mitochondrial potential per cell in living cells was obtained by normalizing the fluorescence intensities of Mitotracker orange dye to the fluorescence intensities of Hoechst 33342 dye in each well. Eight samples per each treatment were examined for the above analysis and data are presented as mean±sem of eight samples.

PSEN = assay: Real-time RT-PCR, PSEN in IMR-32 cells; type: cell-based, human; settings: individual compound
Description: (§1) Human IMR-32 cells were seeded on gelatinized 6-well (6.5×10^5 cells/well) or 24-well (1.3×10^5 cells/well) plates, while mouse liver AML-12 cells were cultured on uncoated 6-well (3.33×10^5 cells/well) or 24-well (6.7×10^4 cells/well) plates. Cells were treated with vehicle (control) or various compounds for 6, 24 or 48 hr. Total RNA from these cells was using Trizol (Invitrogen) according to the Manufacturer's protocol, and then incubated with DNase I to remove any potential contaminated genomic DNA. Then RNA samples were subjected to real-time PCR analysis using the Applied-Bioscience's RT kit and predesigned Taqman probes (Invitrogen), as described previously (Lan et al EMBO J 2003). Three to six samples were analyzed in each treatment group. Data were normalized by Actin B (Actb) or Glyceraldehyde Phosphate Dehydrogenase (Gapdh) levels in each sample, and are presented as mean±sem of 3-6 samples.

Nicastrin [1] = assay: Real-time RT-PCR, Nicastrin in IMR-32 cells; type: cell-based, human
Description: as §1

Gsk3b = assay: Real-time RT-PCR, Gsk3b in IMR-32 cells; type: cell-based, human
Description: as §1

Nicastrin [2] = assay: Western blot, Nicastrin in IMR-32 cells; type: cell-based, human; settings: 150 ppb, 24 hr
Description: (§2) IMR-32 and AML12 cells were seeded on 6-well plates, and then treated with vehicle and various compounds for 6 and 24 hr, as described above. After treatments, cells were rinsed with ice-cold PBS, and lysed in the ice-cold RIPA buffer containing complete proteinase and phosphotase inhibitors (Themo-Fisher Scientific, Waltham, Mass.) on ice for 30 min. Cell lysates were collected using a cell scraper and transfer pipette, and then centrifuged at 12000 g for 30 min at 4° C. to remove the DNA pellet and obtain the protein extract. Protein levels in the supernatant of these cell lysates were determined using the Pierce Micro-BCA protein assay kit (Themo Scientific-Piece Biotechnology, Rockford, Ill.) according to the manufacturer's protocol.
(§3) For Western blot analysis, five micrograms of total proteins from vehicle- and compound(s)-treated cells were subjected to SDS-PAGE gel separation, and then transferred to PVDF membranes, as described previously (Reddy, Liu et al. 2008 Science). Membranes were blocked in a phosphate-buffered saline (PBS) containing 5% (w/v) of bovine serum albumin (Sigma, St. Louis, Mo.), and incubated with specific primary antibodies followed by the incubation with HRP-conjugated anti-mouse or anti-rabbit secondary antibodies (1:5000 dilution, Cell Signaling Inc.). All primary antibodies except G6PC (Santa Cruz), Actb (Li-COR, Lincoln, Nebr.), Elf2bε and pElf2bε (Abcam, Cambridge, Mass.) were purchased from Cell Signaling Inc. Positive signals on the membrane blots were detected using the Amersham's enhanced chemiluminescence Western Blotting Prime Detection reagents (GE healthcare Lifescience, Pittsburgh, Pa.). Images of these luminescence signals on the membrane blots were captured using the LI-COR Odyssey Fc Image system (Lincoln, Nebr.). […] Protein band densities in the Western blots were determined using the Li-COR Image studio software or NIH ImageJ software, and then normalized by Actb level in each sample. […]

pTau S400/T403/S404 = assay: Western blot, pTau S400/T403/S404 in IMR-32 cells; type: cell-based, human; settings: 150 ppb, 24 hr
Description: as §2, §3

total Tau = assay: Western blot, total Tau in IMR-32 cells; type: cell-based, human; settings: 150 ppb, 24 hr
Description: as §2, §3

total FOXO = assay: Western blot, total FOXO in IMR-32 cells; type: cell-based, human; settings: 150 ppb (of each compound)
Description: as §2, §3

pAKT [3] = assay: Western blot, pAKT in IMR-32 cells; type: cell-based, human; settings: 150 ppb
Description: as §2, §3

pElf2beS539 = assay: Western blot, pElf2beS539 in IMR-32 cells; type: cell-based, human; settings: 150 ppb
Description: as §2, §3

pAKT [4] = assay: Western blot, pAKT in AML-12 cells; type: cell-based, mouse; settings: for increased phosphorylation of AKT: individual compounds, 6 or 24 hr
Description: as §2
(§4) For Western blot analysis, five micrograms of total proteins from vehicle- and compound(s)-treated cells were subjected to SDS-PAGE gel separation, and then transferred to PVDF membranes, as described previously (Reddy, Liu et al. 2008 Science). Membranes were blocked in a phosphate-buffered saline (PBS) containing 5% (w/v) of bovine serum albumin (Sigma, St. Louis, Mo.), and incubated with specific primary antibodies followed by the incubation with HRP-conjugated anti-mouse or anti-rabbit secondary antibodies (1:5000 dilution, Cell Signaling Inc.). All primary antibodies except G6PC (Santa Cruz), Actb (Li-COR, Lincoln, Nebr.), Elf2bε and pElf2bε (Abcam, Cambridge, Mass.) were purchased from Cell Signaling Inc. Positive signals on the membrane blots were detected using the Amersham's enhanced chemiluminescence Western Blotting Prime Detection reagents (GE healthcare Lifescience, Pittsburgh, Pa.). Images of these luminescence signals on the membrane blots were captured using the LI-COR Odyssey Fc Image system (Lincoln, Nebr.). The same membrane blot was striped and re-blotted with another antibody as described in the GE WB ECL-prime-detection protocol (GE healthcare Lifescience, Pittsburgh, Pa.). Protein band densities in the Western blots were determined using the Li-COR Image studio software or NIH ImageJ software, and then normalized by Actb level in each sample. Data are presented as mean±sem of three samples per each group.

pGSk3a = assay: Western blot, pGSk3a in AML-12 cells; type: cell-based, mouse; settings: individual compounds, 6 or 24 hr
Description: as §2, §3

pElf2be = assay: Western blot, pElf2be S539 in AML-12 cells; type: cell-based, mouse; settings: for increased phosphorylation of Elf2be: individual compounds, 6 or 24 hr
Description: as §2, §4

pFOXOs = assay: Western blot, FOXO phosphorylation (pFOXOs) in AML-12 cells treated with individual compounds; type: cell-based, mouse; settings: 150 ppb, 6 or 24 hr
Description: as §2, §3

[5] = continuous 48 hr single treatment

Row | SMILES | enhanced MT potential compared with respective sulfur analog(s) (IMR-32 cells; 6 hr) | MT potential (IMR-32 cells; 6 hr, compared to control) | enhanced MT potential compared with sulfur analogs (IMR-32 cells) | MT potential (IMR-32 cells; [5]) | MT potential (AML-12 cells) | PSEN mRNA expression (PSEN; 24 hr) | Nicastrin mRNA expression (Nicastrin [1]; 24 hr) | Gsk3b mRNA expression (Gsk3b; 6 hr) | Gsk3b mRNA expression (Gsk3b; 24 hr) | Nicastrin protein level (Nicastrin [2]) | phosphorylation of Tau at S400/T403/S404 (pTau S400/T403/S404) | total Tau protein level (total Tau) | total FOXO levels (total FOXO) | pAKT protein levels (pAKT [3]) | pElf2beS539 protein level (pElf2beS539) | increased phosphorylation of AKT (pAKT [4]) | increased phosphorylation of Gsk3a (pGSk3a) | increased phosphorylation of Elf2be (pElf2be) | FOXO phosphorylation (increased pFOXOs) (pFOXOs) | also measured
1 | Nc1ncnc2c1ncn2[C@@H]1O[C@H](C[Se]CC[C@@H](N)C(=O)O)C(O)C1O (some centres unmarked) [compound D, 5′-Selenoadenosyl homocysteine] | more pronounced | significantly enhanced MT potential | more pronounced | did not affect MT potential | did not significantly affect MT potential | did not inhibit, but instead stimulated | did not inhibit, but instead stimulated | did not significantly inhibit Gsk3b mRNA expression | significant increase of Gsk3b mRNA expression | trend towards reduced Nicastrin protein expression | had no effect on Tau phosphorylation at all tested serine/threonine residues | had no effect | neither the CDE combination nor the individual C, D or E treatments brought about any change | not visibly decreased | not affected | did not observed the increased phosphorylation | did not observed the increased phosphorylation | did not observed the increased phosphorylation | did not increase FOXO phosphorylation | MT potential (IMR-32 cells; repeated treatments (24 hr + 24 hr), 15 and 150 ppb): significantly enhanced MT potential
2 | C[Se]C[C@H]1O[C@@H](n2cnc3c(N)ncnc32)C(O)C1O (stereo in doubt) [compound C, 5′-Methylselenoadenosine] |  | a trend towards elevated MT potential | more pronounced | did not affect MT potential | did not significantly affect MT potential | significantly reduced | significant decrease in Nicastrin mRNA expression | significantly decreased | trend of decreased Gsk3b mRNA expression | significant reduction | significantly inhibited the phosphorylation of Tau at S400/T403/S404 | did not affect total Tau protein level | neither the CDE combination nor the individual C, D or E treatments brought about any change | not visibly decreased | not affected | did not observed the increased phosphorylation | did not observed the increased phosphorylation | did not observed the increased phosphorylation | did not increase FOXO phosphorylation | PSEN mRNA expression (PSEN; 6 hr): significantly reduced; Nicastrin mRNA expression (Nicastrin [1]; 6 hr): trend towards reduced Nicastrin mRNA expression
3 | C[Se]CC(NC(=O)CCC(N)C(=O)O)C(=O)O (centres unmarked) [compound E, gamma-glutamyl-methylseleno-cysteine] | more pronounced | significantly enhanced MT potential | more pronounced | did not affect MT potential | did not significantly affect MT potential | did not inhibit, but instead stimulated | did not inhibit, but instead stimulated | did not significantly inhibit Gsk3b mRNA expression | significant increase of Gsk3b mRNA expression | trend towards reduced Nicastrin protein expression | significantly down-regulated | significantly down-regulated | neither the CDE combination nor the individual C, D or E treatments brought about any change | not visibly decreased | not affected | did not observed the increased phosphorylation | did not observed the increased phosphorylation | did not observed the increased phosphorylation | did not increase FOXO phosphorylation | MT potential (IMR-32 cells; repeated treatments (24 hr + 24 hr), 150 ppb): significantly enhanced MT potential; levels of pAKT (pAKT [4]; individual compound, 6 hr): slightly reduce; levels of pElf2bε S539 (pElf2be; individual compound, 6 hr): slightly reduce
